We go through one molecule from ChEMBL document CHEMBL4627361, “Decades-old renin inhibitors are still struggling to find a niche in antihypertensive therapy. A fleeting look at the old and the promising new molecules” (Bioorg Med Chem, 2020).

Converted amounts (≈) assume the structure as drawn.

One may read the half-life as how long it takes for the measured level to halve. Low values mean fast loss, high ones slow loss. In general, logD refers to lipophilicity at a set pH, counting ionised and neutral species. Read a high logD as a more lipophilic compound. Broadly, the solubility is how much of the substance goes into solution per volume. Read a low solubility as little dissolved substance.

Series [1] is described as follows: Protein binding in human plasma. The series is classed as ADME, cell-free. The note with it: read-out: PPB (converted).
Series [2] can be described thus: Half life in human. The format is ADME.
Series [3] in a line: Octanol/water partition co-efficient, log P of compound at pH 7.4. The series is classed as physicochemical.
Series [4] in a line: Aqueous solubility of compound in pH 7.4. The format is physicochemical.

As for `COCCCOc1cc(C[C@@H](C[C@H](N)[C@@H](O)C[C@H](C(=O)NCC(C)(C)C(N)=O)C(C)C)C(C)C)ccc1OC`, the fraction unbound in series [1] was 0.505. The molecule further had a half-life in series [2] of 24 h. For the same molecule, in series [3], the logD was determined as 2.45. In series [4], this molecule gave a solubility of 350 mg/mL (≈ 634 mM).
